Experimental data reported in patent publication US9963506B2, “Human-mouse chimeric anti-CD147 antibody with non-fucosylated glycosylation” (Fourth Military Medical University, priority 2015, dated 2018).

Assays:
NCI-H520 cells [1] = test: Transwell invasion assay; type: cell-based, human; settings: 24 hours
Description: (§1) For invasion assay, NCI-H520 or A549 cells were serum-starved for 12 hours in DMEM containing 0.1% FBS. Serum-starved cells were trypsinized and re-suspended in DMEM containing 0.1% FBS and Metuzumab solution at 0.1 μg/ml, 1 μg/ml and 10 μg/ml, respectively. 5×10^4 cells were added to the upper chamber of each well (6.5 mm in diameter, 8-μm pore size; Corning, N.Y.) coated with […] Matrigel (BD Bioscience). Medium containing 10% FBS was placed in the lower compartment of the chamber. After 24 hours at 37° C., cells on the upper membrane surface were removed by careful wiping with a cotton swab, and the filters were fixed by treatment with 95% ethanol for 30 minutes and stained with 0.2% crystal violet solution for 30 minutes. Invasive cells adhering to the undersurface of the filter were then counted (five high-power fields/chamber) using a CX71 microscope (Olympus).

A549 cells = test: Transwell invasion assay; type: cell-based, human; settings: 24 hours
Description: as §1

CD147^+ A549 cells = molecular target: T1, CD147^+ A549 cells (Homo sapiens, UniProt P35613); test: Antigen-binding activity by flow cytometry
T1 construct: endogenous in cells; host or cells: A549 (human lung cancer cell line)
T1 sequence (P35613 22-269 isoform P35613-2 limits assumed): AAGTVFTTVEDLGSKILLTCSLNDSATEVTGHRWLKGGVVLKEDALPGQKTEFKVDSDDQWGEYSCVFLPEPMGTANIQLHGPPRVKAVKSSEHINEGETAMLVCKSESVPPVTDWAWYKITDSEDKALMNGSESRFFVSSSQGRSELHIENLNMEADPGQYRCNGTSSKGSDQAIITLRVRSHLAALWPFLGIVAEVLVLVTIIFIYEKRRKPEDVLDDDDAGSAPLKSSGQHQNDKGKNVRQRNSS
Description: The antibody concentration is 0.001 μg/mL, 0.01 μg/mL, 0.1 μg/mL, 1 μg/ml and 10 μg/mL, respectively.
A549 cells (10^6 cells) were incubated with the Metuzumab (HcHAb18) and cHAb18 antibody, respectively, in PBS with 0.1% BSA at 4° C. for 1 h. After three washes in PBS with 0.1% BSA, cells were incubated with the FITC-conjugated Rabbit anti-Human IgG Fc Secondary Antibody (Pierce) at 4° C. in the dark for 45 min. Cells were then washed three times and suspended in PBS for analysis using a FACS Calibur flow cytometer (BD, New Jersey, U.S.). Relative antigen expression is reported as median fluorescence intensity (MFI).

NCI-H520 cells [2] = test: Subcutaneous xenograft model, tumor growth inhibition; type: in vivo, SCID mice; settings: tail vein
Description: Mice injected with NCI-H520 cells subcutaneously in the right dorsal flank were treated by intravenous saline; 2 mg/kg Cisplatin and 100 mg/kg Gemcitabine; Metuzumab infusion at 2 mg/kg, 10 mg/kg and 30 mg/kg; combination of 10 mg/kg Metuzumab with 2 mg/kg Cisplatin and 100 mg/kg Gemcitabine; wherein the antibodies were injected twice weekly for 3 week consecutively, while the chemotherapeutic agents were injected once a week for 3 weeks consecutively. The tumors were measured twice a week.
Animals were housed in specific pathogen-free (SPF) condition. For the localized subcutaneous xenograft mouse model, 1×10^6 NCI-H520 or A549 cells, suspended in Hank's balanced salt solution were implanted in the right dorsal flank of male SCID mice (6-8 week old). When tumors reached a mean volume of 100 mm^3, mice were randomized into treatment cohorts (n=10 mice per group). Mice were grouped for different treatments, including Metuzumab treatment groups treated with 2 mg/kg, 10 mg/kg and 30 mg/kg Metuzumab; chemistry treatment group treated with 2 mg/kg Cisplatin and 100 mg/kg Gemcitabine; combination treatment group treated with 10 mg/kg Metuzumab with 2 mg/kg Cisplatin and 100 mg/kg Gemcitabine, or saline (control group) via tail vein, respectively. Antibody injections were administered twice weekly, for 3 weeks consecutively; chemotherapeutic agents were administered once a week, for 3 weeks consecutively. Tumor size was measured twice each week for the duration of the study using calipers. Tumor volumes were determined using the following formula: […]. Antitumor activity was assessed by calculating inhibition ratio of tumor volumes (IRTV) based on medians by using following formula: [1−average (Ttreatment (day x)−Ttreatment (day 0))/average (Tcontrol (day x)−Tcontrol (day 0))]×100%.

Metuzumab: human-mouse chimeric anti-CD147 IgG1, heavy chain SEQ ID NO: 4, light chain SEQ ID NO: 3, Mannose-5 glycoform lacking fucose and xylose
invasiveness repressed compared to control groups (NCI-H520 cells [1]; NCI-H520, 0.1 μg/ml): 30.0%
invasiveness repressed compared to control groups (NCI-H520 cells [1]; NCI-H520, 1 μg/ml): 48.0%
invasiveness repressed compared to control groups (NCI-H520 cells [1]; NCI-H520, 10 μg/ml): 66.2%
invasiveness repressed compared to control groups (A549 cells; A549, 0.1 μg/ml): 53.5%
invasiveness repressed compared to control groups (A549 cells; A549, 1 μg/ml): 61.5%
invasiveness repressed compared to control groups (A549 cells; A549, 10 μg/ml): 74.6%
CD147-binding ability, Metuzumab compared with cHAb18 (CD147^+ A549 cells; FIG. 4): similar
Binding to CD147^+ A549 cells (CD147^+ A549 cells; FIG. 4, 0.001-10 μg/mL): bound
inhibition ratio of tumor volumes (IRTV) (NCI-H520 cells [2]; 2 mg/kg twice weekly for 3 weeks): 49.53%
inhibition ratio of tumor volumes (IRTV) (NCI-H520 cells [2]; 10 mg/kg twice weekly for 3 weeks): 53.34%
inhibition ratio of tumor volumes (IRTV) (NCI-H520 cells [2]; 30 mg/kg twice weekly for 3 weeks): 57.75%
